Target: T1, CYP11A1 (Homo sapiens, UniProt P05108)
T1 construct: human H295R adrenocortical carcinoma cell line was used as source of enzyme; endogenous in cells; host or cells: H295R human adrenocortical carcinoma cells
T1 sequence (P05108 40-521): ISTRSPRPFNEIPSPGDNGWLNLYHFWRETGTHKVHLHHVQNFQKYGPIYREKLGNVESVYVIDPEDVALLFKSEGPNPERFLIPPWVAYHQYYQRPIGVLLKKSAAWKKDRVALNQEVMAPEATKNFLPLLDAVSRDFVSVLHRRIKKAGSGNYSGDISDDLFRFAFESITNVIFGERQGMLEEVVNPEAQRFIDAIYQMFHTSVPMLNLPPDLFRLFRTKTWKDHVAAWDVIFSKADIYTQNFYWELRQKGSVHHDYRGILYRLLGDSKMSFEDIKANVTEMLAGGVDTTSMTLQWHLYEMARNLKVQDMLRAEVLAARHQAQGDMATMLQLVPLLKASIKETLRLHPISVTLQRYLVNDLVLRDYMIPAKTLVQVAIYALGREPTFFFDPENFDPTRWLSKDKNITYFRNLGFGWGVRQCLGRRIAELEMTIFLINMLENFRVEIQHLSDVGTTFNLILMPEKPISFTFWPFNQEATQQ
Experiment: CYP11A1 inhibition, isocaproic acid release assay (IARA) in H295R cells
Format: cell-based
Details: human H295R adrenocortical carcinoma cell line, three days, 3 nM [24,25-3H]-labelled cholesterol; read-out: IC50 on CYP11A1 inhibition (Group)
Description: The ability of the test compounds to inhibit conversion of cholesterol to pregnenolone and isocaproic acid was measured by modification of isocaproic acid release assay (IARA) described by Ruangwises et al. (Biology of Reproduction 1991; 45(1):143-50) except that human H295R adrenocortical carcinoma cell line was used as source of enzyme and extraction was done with dextran-coated charcoal suspension (Isomaa, V. et al., Endocrinology 1982; 111(3):833-843). […] To determine the half maximal inhibitory concentration (IC50) of the test compounds on CYP11A1 inhibition, the cells were treated for three days with increasing concentrations of the test compounds in the presence of 3 nM [24,25-3H]-labelled cholesterol (American Radiolabelled Chemicals). The final DMSO concentration was 1%. Cell culture medium was extracted with dextran-coated charcoal suspension and the radiolabelled isocaproic acid was determined by mixing 100 μl of supernatant fraction in 200 μl of scintillation fluid (OptiPhase SuperMix, Perkin Elmer). Radioactivity was measured using a Microbeta scintillation counter (1450 MicroBeta Trilux, Wallac). All the test compounds were studied at 10 concentrations in duplicates.

First: CC(C)(C)OC(=O)N1CCC2(CC1)CC(COc1coc(CN3CCc4ccccc4C3)cc1=O)C2 [Compound 35, tert-Butyl 2-(((6-((3,4-dihydroisoquinolin-2(1H)-yl)methyl)-4-oxo-4H-pyran-3-yl)oxy)methyl)-7-azaspiro[3.5]nonane-7-carboxylate]
Second: CC(C)(C)OC(=O)N1CCC2(CC1)CC(Oc1coc(CN3CCc4ccccc4C3)cc1=O)C2 [Compound 32, tert-Butyl 2-((6-((3,4-dihydroisoquinolin-2(1H)-yl)methyl)-4-oxo-4H-pyran-3-yl)oxy)-7-azaspiro[3.5]nonane-7-carboxylate]
The IC50 of the first is higher: 201 to 2000 nM for the first, 101 to 200 nM for the second.

Compared with `O=c1cc(CN2CCc3ccccc3C2)occ1OC1CC2(CCN(S(=O)(=O)c3cccnc3)CC2)C1` [Compound 54, 2-((3,4-Dihydroisoquinolin-2(1H)-yl)methyl)-5-((7-(pyridin-3-ylsulfonyl)-7-azaspiro[3.5]nonan-2-yl)oxy)-4H-pyran-4-one], `O=c1cc(CN2CCc3ccccc3C2)occ1OCC1CC2(CCN(c3ncccn3)CC2)C1` [Compound 48, 2-((3,4-Dihydroisoquinolin-2(1H)-yl)methyl)-5-((7-(pyrimidin-2-yl)-7-azaspiro-[3.5]nonan-2-yl)methoxy)-4H-pyran-4-one] is lower in IC50: 201 to 2000 nM for the first, 101 to 200 nM for the second. The second is the more potent here.

`CCS(=O)(=O)c1cc(CN2Cc3ccc(C(F)(F)F)cc3C2)ccc1OCC1CCN(S(C)(=O)=O)CC1` [Compound 27, 2-(3-(Ethylsulfonyl)-4-((1-(methylsulfonyl)piperidin-4-yl)methoxy)benzyl)-5-(trifluoromethyl)isoindoline] and `CCCCS(=O)(=O)c1cc(CN2Cc3ccccc3C2)ccc1OCC1CCN(S(C)(=O)=O)CC1` [Compound 28, 2-(3-(Butylsulfonyl)-4-((1-(methylsulfonyl)piperidin-4-yl)methoxy)benzyl)iso-indoline] cannot be ordered by IC50: under 100 nM for the first, under 100 nM for the second.

Compared with `CS(=O)(=O)c1cc(CN2Cc3ccc(-c4ncco4)cc3C2)ccc1OCC1CCN(S(C)(=O)=O)CC1` [Compound 13b, 2-(2-(3-(Methylsulfonyl)-4-((1-(methylsulfonyl)piperidin-4-yl)methoxy)-benzyl)isoindolin-5-yl)oxazole], `CS(=O)(=O)c1cc(CN2Cc3ccc(-c4cnco4)cc3C2)ccc1OCC1CCN(S(C)(=O)=O)CC1` [Compound 13a, 5-(2-(3-(Methylsulfonyl)-4-((1-(methylsulfonyl)piperidin-4-yl)methoxy)-benzyl)isoindolin-5-yl)oxazole] is higher in IC50: under 100 nM for the first, 101 to 200 nM for the second.

`CS(=O)(=O)c1cc(CN2Cc3ccccc3C2)ccc1OCc1ccc(C(=O)N=S(C)(C)=O)cc1` [Compound 78, N-(Dimethyl(oxo)-λ^6-sulfaneylidene)-4-((4-(isoindolin-2-ylmethyl)-2-(methyl-sulfonyl)phenoxy)methyl)benzamide] and `CS(=N)(=O)c1ccc(COc2ccc(CN3Cc4ccccc4C3)cc2S(C)(=O)=O)cc1` (centres unmarked) [Compound 72, Imino(4-((4-(isoindolin-2-ylmethyl)-2-(methylsulfonyl)phenoxy)methyl)phenyl)(methyl)-λ^6-sulfanone] cannot be ordered by IC50: under 100 nM for the first, under 100 nM for the second.

`CS(=O)(=O)c1cc(CN2Cc3cccc(F)c3C2)ccc1OCC1CCN(S(C)(=O)=O)CC1` [Compound 105, 4-Fluoro-2-(3-(methylsulfonyl)-4-((1-(methylsulfonyl)piperidin-4-yl)methoxy)-benzyl)isoindoline] and `CS(=O)(=O)c1cc(CN2Cc3ccc(-c4cncs4)cc3C2)ccc1OCC1CCN(S(C)(=O)=O)CC1` [Compound 14, 5-(2-(3-(Methylsulfonyl)-4-((1-(methylsulfonyl)piperidin-4-yl)methoxy)benzyl)-isoindolin-5-yl)thiazole] cannot be ordered by IC50: under 100 nM for the first, under 100 nM for the second.

First: CS(=O)(=O)N1CCC(COc2coc(CN3Cc4ccc(-c5nncs5)cc4C3)cc2=O)CC1 [Compound 6, 2-((5-(1,3,4-Thiadiazol-2-yl)isoindolin-2-yl)methyl)-5-((1-(methylsulfonyl)-piperidin-4-yl)methoxy)-4H-pyran-4-one]
Second: CS(=O)(=O)N1CCC(COc2coc(CN3Cc4ccc(-c5ncco5)cc4C3)cc2=O)CC1 [Compound 3, 5-((1-(Methylsulfonyl)piperidin-4-yl)methoxy)-2-((5-(oxazol-2-yl)isoindolin-2-yl)methyl)-4H-pyran-4-one]
The IC50 of the first is higher: 101 to 200 nM for the first, under 100 nM for the second. The second is the more potent here.

`CN(C)C(=O)C1CCC(COc2ccc(CN3Cc4ccccc4C3)cc2S(C)(=O)=O)CC1` (centres unmarked) [Compound 74, 4-((4-(Isoindolin-2-ylmethyl)-2-(methylsulfonyl)phenoxy)methyl)-N,N-dimethylcyclohexane-1-carboxamide] and `CN(C)C(=O)[C@H]1CC[C@H](COc2ccc(CN3Cc4ccccc4C3)cc2S(C)(=O)=O)CC1` [Compound 79, (1r,4r)-4-((4-(Isoindolin-2-ylmethyl)-2-(methylsulfonyl)phenoxy)methyl)-N,N-dimethylcyclohexane-1-carboxamide] cannot be ordered by IC50: under 100 nM for the first, under 100 nM for the second.

Compared with `CC(O)C1CCC(COc2ccc(CN3Cc4ccccc4C3)cc2S(C)(=O)=O)CC1` (centres unmarked) [Compound 94, 1-(4-((4-(Isoindolin-2-ylmethyl)-2-(methylsulfonyl)phenoxy)methyl)cyclohexyl)ethan-1-ol], `CC(=O)[C@H]1CC[C@H](COc2ccc(CN3Cc4ccccc4C3)cc2S(C)(=O)=O)CC1` [Compound 67, 1-((1r,4r)-4-((4-(Isoindolin-2-ylmethyl)-2-(methylsulfonyl)phenoxy)methyl)-cyclohexyl)ethan-1-one] is lower in IC50: 201 to 2000 nM for the first, under 100 nM for the second.

First: CS(=O)(=O)c1cc(CN2Cc3ccccc3C2)ccc1OCC1CCC(C(=O)N2CCC2)CC1 (centres unmarked) [Compound 80, Azetidin-1-yl(4-((4-(isoindolin-2-ylmethyl)-2-(methylsulfonyl)phenoxy)-methyl)cyclohexyl)methanone]
Second: CS(=O)(=O)c1cc(CN2Cc3ccccc3C2)ccc1OCC1CCN(S(=O)(=O)C2COC2)CC1 [Compound 75, 2-(3-(Methylsulfonyl)-4-((1-(oxetan-3-ylsulfonyl)piperidin-4-yl)methoxy)-benzyl)isoindoline]
The IC50 of the first is higher: 101 to 200 nM for the first, under 100 nM for the second. The second is the more potent here.

`CC[S@@](=N)(=O)c1ccc(COc2ccc(CN3Cc4ccccc4C3)cc2S(C)(=O)=O)cc1` [Compound 98, (R)-Ethyl(imino)(4-((4-(isoindolin-2-ylmethyl)-2-(methylsulfonyl)phenoxy)-methyl)phenyl)-λ^6-sulfanone] and `CCS(=N)(=O)c1ccc(COc2ccc(CN3Cc4ccccc4C3)cc2S(C)(=O)=O)cc1` (centres unmarked) [Compound 71, Ethyl(imino)(4-((4-(isoindolin-2-ylmethyl)-2-(methylsulfonyl)phenoxy)methyl)-phenyl)-λ^6-sulfanone] cannot be ordered by IC50: under 100 nM for the first, under 100 nM for the second.

`N#Cc1ccc(N2CC3(CC(COc4coc(CN5CCc6ccccc6C5)cc4=O)C3)C2)nc1` [Compound 51, 6-(6-(((6-((3,4-Dihydroisoquinolin-2(1H)-yl)methyl)-4-oxo-4H-pyran-3-yl)oxy)-methyl)-2-azaspiro[3.3]heptan-2-yl)nicotinonitrile] and `CS(=O)(=O)N1CCC(COc2coc(CN3Cc4ccccc4C4(CC4)C3)cc2=O)CC1` [Compound 103, 2-((1′H-Spiro[cyclopropane-1,4′-isoquinolin]-2′(3′H)-yl)methyl)-5-((1-(methyl-sulfonyl)piperidin-4-yl)methoxy)-4H-pyran-4-one] fall in the same range of IC50: 201 to 2000 nM for the first, 201 to 2000 nM for the second.

`CC(C)(O)c1ccc(COc2coc(CN3Cc4ccccc4C4(CCCC4)C3)cc2=O)cc1` [Compound 104, 2-((1′H-Spiro[cyclopentane-1,4′-isoquinolin]-2′(3′H)-yl)methyl)-5-((4-(2-hydroxypropan-2-yl)benzyl)oxy)-4H-pyran-4-one] and `CS(=O)(=O)c1cc(CN2Cc3ccccc3C2)ccc1OCc1ccc([S@](C)(=N)=O)cc1` [Compound 95, (R)-Imino(4-((4-(isoindolin-2-ylmethyl)-2-(methylsulfonyl)phenoxy)methyl)-phenyl)(methyl)-λ^6-sulfanone] fall in the same range of IC50: 101 to 200 nM for the first, 101 to 200 nM for the second.

Compared with `CS(=O)(=O)c1ccc(COc2ccc(CN3Cc4ccccc4C3)cc2S(C)(=O)=O)cc1F` [Compound 81, 2-(4-((3-Fluoro-4-(methylsulfonyl)benzyl)oxy)-3-(methylsulfonyl)benzyl)-isoindoline], `CS(=O)(=O)c1cc(CN2Cc3ccccc3C2)ccc1OCc1ccc(S(=O)(=O)N2CC(O)C2)cc1` [Compound 77, 1-((4-((4-(Isoindolin-2-ylmethyl)-2-(methylsulfonyl)phenoxy)methyl)phenyl)-sulfonyl)azetidin-3-ol] is lower in IC50: 101 to 200 nM for the first, under 100 nM for the second.

In the case of `COCCN(C)C(=O)c1ccc(COc2ccc(CN3Cc4ccccc4C3)cc2S(C)(=O)=O)cc1` [Compound 69, 4-((4-(Isoindolin-2-ylmethyl)-2-(methylsulfonyl)phenoxy)methyl)-N-(2-methoxyethyl)-N-methylbenzamide], the IC50 is reported as under 100 nM.

Reference: patent US20230192677A1, “CYP11A1 INHIBITORS” (ORION CORPORATION, priority 2020, published 2023)
